Results: PMC6804443 (Acta Pharmaceutica Sinica. B, 2019)
Starred links: 1 amine or outer side, 2 acyl side, 3 side chain; linkers in the order of their positions; H or OH if unused. Positions of bridges follow the written chain, without caps; N, C: chain ends. Non-standard residues stand in square brackets, D forms with d. Residues, ends and D or L forms follow the SMILES beside them. *: point of attachment. hTyr(3S-OH,4S-OH,3'-OSO3H) = N[C@H](C(=O)O)[C@H](O)[C@@H](O)c1ccc(O)c(OS(=O)(=O)O)c1; Orn(4R-OH,5R-OH) = O=C([C@H](C[C@@H](O)[C@@H](O)N[*:3])N[*:1])[*:2]; Pro(3S-OH,4S-Me) = C[C@H]1CN[C@H](C(=O)O)[C@H]1O; X1 = CCCCCOc1ccc(-c2cc(-c3ccc(C(=O)*)cc3)no2)cc1; Gln(3R-OH) = NC(=O)C[C@@H](O)[C@H](N)C(=O)O; Hyp = O=C(O)[C@@H]1C[C@@H](O)CN1

Experiments:
UGT2B15 = biological target: T1, UGT2B15 (Homo sapiens, UniProt P54855); assay type: in vitro ADME; conditions: for Inhibition DDI index, UGT2B15: antibiotic as perpetrator, senkyunolide I (X5) as victim, (Cmax × fu-p × R)/IC50
T1 sequence (P54855 24-530): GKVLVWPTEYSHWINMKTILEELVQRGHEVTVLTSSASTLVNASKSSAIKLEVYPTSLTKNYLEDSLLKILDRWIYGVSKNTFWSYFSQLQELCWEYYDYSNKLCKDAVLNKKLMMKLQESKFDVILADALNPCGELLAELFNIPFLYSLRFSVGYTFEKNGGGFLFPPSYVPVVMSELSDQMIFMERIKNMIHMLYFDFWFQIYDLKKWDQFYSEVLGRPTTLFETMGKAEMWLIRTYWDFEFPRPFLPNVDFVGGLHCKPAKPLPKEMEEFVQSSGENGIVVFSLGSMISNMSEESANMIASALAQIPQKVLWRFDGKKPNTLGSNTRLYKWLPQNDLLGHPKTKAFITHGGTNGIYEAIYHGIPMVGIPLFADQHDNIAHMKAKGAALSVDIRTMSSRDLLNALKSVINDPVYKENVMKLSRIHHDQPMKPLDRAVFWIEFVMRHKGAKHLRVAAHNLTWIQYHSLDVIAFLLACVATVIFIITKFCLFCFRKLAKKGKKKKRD

OAT2 = biological target: T2, OAT2 (Homo sapiens, UniProt Q9Y694); test: OAT2 inhibition by antibiotics, transfected HEK293 cells, tanshinol as substrate; assay type: in vitro ADME
T2 sequence (Q9Y694 1-546 isoform Q9Y694-2): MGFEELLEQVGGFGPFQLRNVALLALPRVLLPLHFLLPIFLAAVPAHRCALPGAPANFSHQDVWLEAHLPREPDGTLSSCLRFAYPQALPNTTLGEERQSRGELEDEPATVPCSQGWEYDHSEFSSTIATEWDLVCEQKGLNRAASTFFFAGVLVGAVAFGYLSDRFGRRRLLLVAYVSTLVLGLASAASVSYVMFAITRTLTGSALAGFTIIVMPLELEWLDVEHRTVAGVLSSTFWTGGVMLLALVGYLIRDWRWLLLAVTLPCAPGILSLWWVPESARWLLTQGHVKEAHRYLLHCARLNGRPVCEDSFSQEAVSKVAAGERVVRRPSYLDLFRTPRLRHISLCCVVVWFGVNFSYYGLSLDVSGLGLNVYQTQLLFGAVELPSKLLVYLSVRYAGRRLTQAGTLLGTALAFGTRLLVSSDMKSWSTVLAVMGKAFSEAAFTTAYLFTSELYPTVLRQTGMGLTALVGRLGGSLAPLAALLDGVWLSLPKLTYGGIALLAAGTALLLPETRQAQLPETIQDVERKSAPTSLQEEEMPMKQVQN

OATP1B3 [1] = biological target: T3, OATP1B3 (Homo sapiens, UniProt Q9NPD5); conditions: IC50, OATP1B3 [X10], mean ± SD (n = 3)
T3 sequence (Q9NPD5 1-702): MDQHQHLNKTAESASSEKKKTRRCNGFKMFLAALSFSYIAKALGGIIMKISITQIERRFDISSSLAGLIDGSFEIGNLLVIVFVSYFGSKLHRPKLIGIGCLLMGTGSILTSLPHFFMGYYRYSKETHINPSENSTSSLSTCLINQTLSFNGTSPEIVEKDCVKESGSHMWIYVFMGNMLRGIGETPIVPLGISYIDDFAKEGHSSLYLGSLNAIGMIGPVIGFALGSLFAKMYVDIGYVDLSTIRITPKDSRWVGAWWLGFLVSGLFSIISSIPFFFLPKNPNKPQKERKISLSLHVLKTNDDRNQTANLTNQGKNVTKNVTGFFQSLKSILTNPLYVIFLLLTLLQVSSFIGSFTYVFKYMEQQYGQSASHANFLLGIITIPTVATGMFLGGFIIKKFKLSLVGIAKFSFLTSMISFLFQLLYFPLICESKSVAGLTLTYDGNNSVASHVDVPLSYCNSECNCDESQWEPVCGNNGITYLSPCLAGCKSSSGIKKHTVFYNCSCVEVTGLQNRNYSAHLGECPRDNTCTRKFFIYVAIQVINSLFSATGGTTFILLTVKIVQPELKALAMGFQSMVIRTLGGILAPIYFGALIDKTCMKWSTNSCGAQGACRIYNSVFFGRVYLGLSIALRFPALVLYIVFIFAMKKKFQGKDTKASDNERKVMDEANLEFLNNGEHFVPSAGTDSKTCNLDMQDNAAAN

OATP1B3 [2] = biological target: T3, OATP1B3; test: in vitro
OAT1 = biological target: T4, OAT1 (Homo sapiens, UniProt Q4U2R8); test: OAT1 inhibition by antibiotics, transfected HEK293 cells, tanshinol as substrate
T4 sequence (Q4U2R8 1-563): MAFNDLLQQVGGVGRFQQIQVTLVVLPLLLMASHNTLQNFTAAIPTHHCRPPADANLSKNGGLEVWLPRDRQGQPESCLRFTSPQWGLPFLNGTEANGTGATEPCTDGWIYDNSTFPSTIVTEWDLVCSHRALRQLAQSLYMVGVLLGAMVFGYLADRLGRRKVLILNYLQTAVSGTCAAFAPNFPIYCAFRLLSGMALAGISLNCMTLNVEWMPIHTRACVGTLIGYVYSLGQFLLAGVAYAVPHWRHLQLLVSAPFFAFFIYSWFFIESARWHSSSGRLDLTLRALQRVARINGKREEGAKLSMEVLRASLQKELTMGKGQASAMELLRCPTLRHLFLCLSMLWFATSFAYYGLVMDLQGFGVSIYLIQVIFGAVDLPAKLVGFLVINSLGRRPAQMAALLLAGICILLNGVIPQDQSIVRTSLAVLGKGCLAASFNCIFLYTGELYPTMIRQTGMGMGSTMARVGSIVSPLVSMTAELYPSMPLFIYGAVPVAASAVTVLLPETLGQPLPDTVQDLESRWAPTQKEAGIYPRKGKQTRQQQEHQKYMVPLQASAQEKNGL

OATP1B3 [3] = biological target: T3, OATP1B3; conditions: antibiotic as perpetrator, salvianolic acid B (X10) as victim; (Cmax × fu-p × R)/IC50
ALDH = assay type: in vitro ADME; conditions: human, pooled human liver cytosol

| IC50 (UGT2B15) [µM] | IC50 (OATP1B3 [1]) [µM] | Inhibition DDI index, OATP1B3 (OATP1B3 [3]) | inhibition at 1000 μmol/L (OATP1B3 [2]) [%] | IC50 (ALDH) [µM] | inhibition at 1000 μmol/L (ALDH) [%] | SMILES | other results |
| --- | --- | --- | --- | --- | --- | --- | --- |
| – | – | – | – | 120 ± 30 | 56 to 88 | C[C@@H](O)[C@H]1C(=O)N2C(C(=O)O)=C(SCCN=CN)C[C@H]12 [A1, imipenem] | – |
| – | 68 ± 20 | 1.81–2.14 | 64 to 88 | – | – | CO/N=C(\C(=O)N[C@@H]1C(=O)N2C(C(=O)O)=C(COC(C)=O)CS[C@H]12)c1csc(N)n1 [A9, cefotaxime] | – |
| – | 56 ± 21 | – | – | 308 ± 68 | – | CC1(C)S[C@@H]2[C@H](NC(=O)Cc3ccccc3)C(=O)N2[C@H]1C(=O)O [A15, penicillin G] | inhibition at 5000 μmol/L (OATP1B3 [2]): > 90% |
| – | – | – | – | 164 ± 39 | 56 to 88 | C[C@@H](O)[C@H]1C(=O)N2C(C(=O)O)=C(S[C@@H]3CN[C@H](C(=O)N(C)C)C3)[C@H](C)[C@H]12 [A2, meropenem] | – |

More lines, now with the values behind:

| SMILES | IC50 (UGT2B15) [µM] | IC50 (OATP1B3 [1]) [µM] | Inhibition DDI index, OATP1B3 (OATP1B3 [3]) | inhibition at 1000 μmol/L (OATP1B3 [2]) [%] | IC50 (ALDH) [µM] | inhibition at 1000 μmol/L (ALDH) [%] | other results |
| --- | --- | --- | --- | --- | --- | --- | --- |
| CCCCCOc1ccc(-c2cc(-c3ccc(C(=O)N[C@H]4C[C@@H](O)[C@@H](O)NC(=O)[C@@H]5[C@@H](O)[C@@H](C)CN5C(=O)[C@H]([C@H](O)CC(N)=O)NC(=O)[C@H]([C@H](O)[C@@H](O)c5ccc(O)c(OS(=O)(=O)O)c5)NC(=O)[C@@H]5C[C@@H](O)CN5C(=O)[C@H]([C@@H](C)O)NC4=O)cc3)no2)cc1 [A40, micafungin] (X1-[Orn(4R-OH,5R-OH)]T[Hyp][hTyr(3S-OH,4S-OH,3'-OSO3H)][Gln(3R-OH)][Pro(3S-OH,4S-Me)]; lactam 1-C) | 3 | 3 ± 1 | – | – | – | – | inhibition at 100 μmol/L (UGT2B15; human, cDNA-expressed UGT2B15): ≥ 90%; IC50 (OAT2): 26 ± 2 µM; inhibition at 100 µM (OAT2; HEK293, read-out: Inhibition of OAT2): > 90%; inhibition at 100 μmol/L (OATP1B3 [2]): > 90%; IC50 (OAT1): 43 ± 4 µM; inhibition at 100 μmol/L (OAT1; human): ≥ 90% |
| CO/N=C(\C(=O)N[C@@H]1C(=O)N2C(C(=O)O)=C(CSc3nc(=O)c(=O)[nH]n3C)CS[C@H]12)c1csc(N)n1 [A6, ceftriaxone] | – | 201 ± 48 | 0.68 | 64 to 88 | – | – | – |
| CCN1CCN(C(=O)N[C@@H](C(=O)N[C@@H]2C(=O)N3C(C(=O)O)=C(CSc4nnnn4C)CS[C@H]23)c2ccc(O)cc2)C(=O)C1=O [A8, cefoperazone] | 971 ± 130 | 27 ± 9 | 1.72–4.43 | 64 to 88 | – | – | Inhibition DDI index, UGT2B15 (UGT2B15): 0.12; inhibition at 1000 μmol/L (UGT2B15; human, cDNA-expressed UGT2B15): 60 to 88% |
| CC[C@H]1OC(=O)[C@H](C)[C@@H](O[C@H]2C[C@@](C)(OC)[C@@H](O)[C@H](C)O2)[C@H](C)[C@@H](O[C@@H]2O[C@H](C)C[C@H](N(C)C)[C@H]2O)[C@](C)(O)C[C@@H](C)C(=O)[C@H](C)[C@@H](O)[C@]1(C)O [A34, erythromycin] | – | 3 ± 1 | 0.35–1.04 | – | – | – | inhibition at 100 μmol/L (OATP1B3 [2]): > 90% |
| CO[C@@]1(NC(=O)Cc2cccs2)C(=O)N2C(C(=O)O)=C(COC(N)=O)CS[C@@H]21 [A20, cefoxitin] | 57 ± 11 | 26 ± 19 | 2.81 | > 90 | 983 ± 117 | 56 to 88 | Inhibition DDI index, UGT2B15 (UGT2B15): 1.28; inhibition at 1000 μmol/L (UGT2B15; human, cDNA-expressed UGT2B15): ≥ 90% |
